The test system of one series is TMD8 cells. Nature of the series: Cell viability assay (CellTiter-Glo), TMD8 cells. As to conditions: for EC50: Homo sapiens, TMD8, 72 h; for EMAX (% viable cells): TMD8 cells, treatment time 72 h. (In general: In ATP-based viability assays light output follows the ATP content of the culture.)
The test system of the next series is TMD8 C481S cells. In words: Cell viability assay (CellTiter-Glo), TMD8 C481S cells. As to conditions: for EC50: Homo sapiens, TMD8, 72 h; for EMAX (% viable cells): TMD8 C481S cells, treatment time 72 h.
The target in a further series is T1, Ikaros (Homo sapiens, UniProt Q13422+Q96SW2).
T1 construct: endogenous in cells; host or cells: Mino, Rec-1
Nature of the series: Ikaros degradation in Mantle Cell Lymphoma lines (flow cytometry). The series is classed as cell-based. Particulars: treatment time 24 h. The text has this: Ikaros and Aiolos Degradation in Mantle Cell Lymphoma Lines (Ikaros and Aiolos Flow Cytometry)
This example evaluates the IMiD activity of CTMs in cellular models of Mantle Cell Lymphoma (MCL). […] These assays are to determine potency of CTMs for degrading IMiD neo-substrates in cellular models of MCL and to generate data to inform efficacy studies in MCL xenografts.
A general note: A flow cytometer gives signals particle by particle.

Series [1] deals with T2, BTK (Rattus norvegicus, UniProt Q5S255).
T2 construct: from tissue
In words: PD data from rat (BTK degradation). The series is classed as in vivo. Particulars: blood. The text has this: (§1) In this example, compounds were profiled for activity in non-mouse species.

The subject of a further series is 1:1 TMD8 WT:TMD8 C481S. In words: Mouse xenograft efficacy study, 1:1 TMD8 WT:TMD8 C481S model. The series is classed as in vivo. As to conditions: PO, 30 mg/kg, BID, 21 days of dosing. The source says:
(§2) Efficacy in Mouse Xenograft Models
(§3) This example examines the activity of various BTK CTMs in relevant disease models, including the WT and C481S TMD8 model, which models B cell malignancies with/without inhibitor-driven BTK mutations at C481.

Series [2] addresses T3, BTK (Canis lupus familiaris, UniProt A0A8I3P3Z9).
T3 construct: from tissue
In words: PD data from dog (BTK degradation). The series is classed as in vivo. Particulars: blood.
Source text: as §1

The target in another series is BTK C481S (Homo sapiens, UniProt Q06187, C481S). In words: BTK remaining in TMD8 C481S mouse xenograft study. It counts as in vivo. On the set-up: from tissue; host or cells: TMD8 BTK-C481S xenograft in CB.17 SCID mice. As to conditions: PO, 23 days of dosing.
Source text: as §2, §3

For series [3], the target named is BTK (Homo sapiens, UniProt Q06187). Nature of the series: BTK remaining in TMD8 WT mouse xenograft study. It counts as in vivo. On the set-up: from tissue; host or cells: TMD8 xenograft in CB.17 SCID mice.
Source text: as §2, §3

Another series has as its system TMD8 tumor cells. In words: TMD8 xenograft efficacy study (wild-type BTK). It counts as in vivo, mouse. As to conditions: TMD8 WT. As for the experimental part:
[…] Tumor growth inhibition (% TGI) were calculated on the final day of measurement using the equation [1−(T−T0/C−T0)]×100, where T and C represent the mean size of tumors in the treated (T) and control (C) groups, and T0 refers to the tumor size at randomization.
as §3

The mark [4] stands for this setting: PO (water bottle), 15 mg/kg, QD (water bottle), 21 days of dosing.
Setting [5] is: PO (water bottle), 35 mg/kg, QD (water bottle), 23 days of dosing.

Values joined by “and” are separate entries in the source; they are usually repeats but may differ in a detail not shown here. Identical values can stand only once. Some results are limits rather than exact numbers.

For orientation: EC50 means the concentration that produces a half-maximal response. A low value points to greater potency. With `CN1CCN([C@@H]2CCCN(c3cnc(C(N)=O)c(Nc4ccc(C5CCN(CC6CCN(c7ccc8c(=O)n(C9CCC(=O)NC9=O)ccc8c7)CC6)CC5)cc4)n3)C2)C1=O` (stereo partly drawn) [Compound 72], in the series on TMD8 cells, the EC50 is 0.429 nM and the “EMAX (% viable cells)” value is given as 26%. Moreover, in the series with TMD8 C481S cells, the 50% effective concentration (EC50) turned out to be 1.16 nM and the “EMAX (% viable cells)” value is recorded as 21%.

The term DC50 denotes the concentration at which degradation of the target reaches its halfway point. With `CN1CCN([C@H]2CCCN(c3cnc(C(N)=O)c(Nc4ccc(C5CCN(CC6CCN(c7ccc(C(=O)NC8CCC(=O)NC8=O)nc7)CC6)CC5)cc4)n3)C2)C1=O` (stereo partly drawn) [Compound 130], the EC50 in the series with TMD8 cells was 1.5 nM; in the series on TMD8 C481S cells, 4.83 nM. Also, the “EMAX (% viable cells)” value in the series with TMD8 cells amounted to 27%; in the series on TMD8 C481S cells it was 33%. The 50% degradation concentration (DC50) on Ikaros (Mino cells) and on Ikaros (Rec-1 cells) was > 2000 nM throughout. For the same molecule, the “% BTK Remaining” value is <1% at BTK [1] (1 mg/kg IV, 4 h); <1% at BTK [1] (1 mg/kg IV, 24 h); <1% on BTK [1] (10 mg/kg PO, 4 h); <1% on BTK [1] (10 mg/kg PO, 24 h); <1% at BTK [1] (30 mg/kg PO, 4 h); <1% at BTK [1] (30 mg/kg PO, 24 h).

As to `CN1CCN([C@@H]2CCCN(c3cnc(C(N)=O)c(Nc4ccc(C5CCN(C[C@H]6CCN(c7ccc8c(c7)C(=O)N(C7CCC(=O)NC7=O)C8=O)C6)CC5)cc4)n3)C2)C1=O` (stereo partly drawn) [Compound 44], the “Tumor Growth Inhibition (relative to vehicle)” value stood at 54% in the series with 1:1 TMD8 WT:TMD8 C481S; 29% in the series with TMD8 tumor cells (setting [4]); 89% with TMD8 tumor cells (setting [5]); 100% in the series on TMD8 tumor cells (PO, 7.5 mg/kg, BID, 21 days of dosing); 100% in the series on TMD8 tumor cells (PO, 15 mg/kg, BID, 21 days of dosing); 99% with TMD8 tumor cells (PO, 30 mg/kg, BID, 23 days of dosing). The “Tumor Growth Inhibition (relative to vehicle)” value in the series with TMD8 tumor cells (PO, 30 mg/kg, QD, 23 days of dosing) came out at 83%; with TMD8 tumor cells (PO, 90 mg/kg, BID, 23 days of dosing), 100%; with TMD8 tumor cells (PO, 90 mg/kg, QD, 23 days of dosing), 93%. The figures for the concentration for a half-maximal effect (EC50) in the series on TMD8 cells and in the series with TMD8 C481S cells were 3.73 nM and 8.1 nM, respectively. Further, the “EMAX (% viable cells)” value worked out at 15% in the series on TMD8 cells and 25% with TMD8 C481S cells. For the same molecule, the “% BTK Remaining” value at BTK [2] (10 mg/kg PO, 2 h) amounted to 88%; at BTK [2] (10 mg/kg PO, 4 h), 56%; on BTK [2] (10 mg/kg PO, 8 h), 35%; at BTK [2] (10 mg/kg PO, 24 h), 19%; at BTK [2] (30 mg/kg PO, 2 h) it was 87%; at BTK [2] (30 mg/kg PO, 4 h), 58%. For the same molecule, the “% BTK Remaining” value on BTK [2] (30 mg/kg PO, 8 h) came to 28%; at BTK [2] (30 mg/kg PO, 24 h), 14%. In addition, the “BTK Remaining (% relative to vehicle)” value on BTK C481S (5 mg/kg, BID) was 44%; on BTK C481S (10 mg/kg, QD) it was 38%; on BTK C481S (15 mg/kg, BID) it was 25%; at BTK C481S (30 mg/kg, BID), 39% and 35%; at BTK C481S (30 mg/kg, QD), 51% and 42%; at BTK C481S (60 mg/kg, QD), 36%. The “BTK Remaining (% relative to vehicle)” value on BTK [3] (setting [4]) was 7%; on BTK [3] (setting [5]), 18%; on BTK [3] (PO, 30 mg/kg, QD, 21 days of dosing) it was 32% and 20%. The DC50 at Ikaros (Mino cells) was determined as 1400 nM; at Ikaros (Rec-1 cells), 72 nM.

With `CN1CCN([C@@H]2CCCN(c3cnc(C(N)=O)c(Nc4ccc(C5CCN(CC6CCN(c7ccc(-c8nn(C9CCC(=O)NC9=O)c(=O)n8C)cc7)CC6)CC5)cc4)n3)C2)C1=O` (stereo partly drawn) [Compound 121], in the series on TMD8 cells, the EC50 was determined as 1.54 nM and the “EMAX (% viable cells)” value is reported as 28%. Moreover, in the series with TMD8 C481S cells, the EC50 came out at 4.94 nM and the “EMAX (% viable cells)” value was 31%.

`NC(=O)c1ncc(N2CCCCC2)nc1Nc1ccc(C2CCN(C[C@@H]3CCN(c4ccc5c(c4)C(=O)N(C4CCC(=O)NC4=O)C5=O)C3)CC2)cc1` (stereo partly drawn) [Compound 149]: the values for the EC50 in the series on TMD8 cells and in the series with TMD8 C481S cells were 9.62 nM and 37.2 nM, respectively. Further, the entries for the “EMAX (% viable cells)” value in the series on TMD8 cells and in the series with TMD8 C481S cells were 7% and 18%, respectively. Besides, the “% BTK Remaining” value worked out at 43% at BTK [2] (1 mg/kg IV, 2 h); 22% on BTK [2] (1 mg/kg IV, 4 h); 10% at BTK [2] (1 mg/kg IV, 8 h); 11% on BTK [2] (1 mg/kg IV, 24 h); 61% on BTK [2] (10 mg/kg PO, 2 h); 47% on BTK [2] (10 mg/kg PO, 4 h). In addition, the “% BTK Remaining” value on BTK [2] (10 mg/kg PO, 8 h) is reported as 29%; on BTK [2] (10 mg/kg PO, 24 h) it was 17%. In addition, the DC50 at Ikaros (Mino cells) worked out at 130 nM; at Ikaros (Rec-1 cells), 61 nM.
